# Laboratory results: ChEMBL document CHEMBL1151102, “Macrocyclic pyrrolizidine alkaloids from Senecio anonymus. Separation of a complex alkaloid extract using droplet counter-current chromatography” (J Nat Prod, 1988)
# Test system: A204
# Test: Cytotoxicity against human A204 cells after 24 hrs by soft agar colony forming assay
# Type: functional, cell-based
# Conditions: A204, 24 h
row,Structure (SMILES),IC50 [µg/mL]
1,C/C=C1/C[C@@H](C)[C@](O)(CO)C(=O)OC/C2=C/CN(C)CC[C@@H](OC1=O)C2=O [HYDROXYSENKIRKINE],360
2,C/C=C1/C[C@@H](C)[C@@](C)(O)C(=O)OCC2=CCN3CC[C@@H](OC1=O)[C@@H]23 [SENECIONINE],150
3,C/C=C1/C[C@@H](C)[C@@](C)(O)C(=O)OCC2=CC[N+]3([O-])CC[C@@H](OC1=O)[C@@H]23 (stereo not given in full) [SENECIONINE N-OXIDE],150
4,C/C=C1/C[C@@H](C)[C@@](C)(O)C(=O)OC/C2=C/CN(C)CC[C@@H](OC1=O)C2=O [NEOSENKIRKINE],221
5,C[C@H]1C(=O)O[C@@H]2CCN3CC=C(COC(=O)[C@](C)(O)[C@]1(C)O)[C@H]23 [MONOCROTALINE],316
6,C[C@@H]1C/C(=C\CO)C(=O)O[C@@H]2CCN(C)C/C=C(/COC(=O)[C@]1(C)O)C2=O [ANONAMINE],153
7,C/C=C1\C[C@@H](C)[C@@](C)(O)C(=O)OC/C2=C/CN(C)CC[C@@H](OC1=O)C2=O [SENKIRKINE],260
8,C[C@@H]1C[C@@]2(O[C@H]2C)C(=O)O[C@@H]2CCN(C)C/C=C(/COC(=O)[C@]1(C)O)C2=O [OTOSENINE],130
9,C/C=C1\C[C@@H](C)[C@@](C)(O)C(=O)OCC2=CCN3CC[C@@H](OC1=O)[C@@H]23 [INTEGERRIMINE],120
10,C/C=C1\C[C@@H](C)[C@](O)(CO)C(=O)OCC2=CCN3CC[C@@H](OC1=O)[C@@H]23 [RETRORSINE],120
